According to patent US7314624B2 (priority 2001, dated 2008):

What was measured:
Assay type in all cases: cell-based
[1] = tested on: S. typhimurium
[2] = tested on: S. dysenteriae; settings: 15 minutes; bacteria alone 910,000 CFU; X8P 1/100 dilution; EDTA 50-25 μM
[3] = tested on: Influenza virus A/AA/6/60

Compound | bacterial count after treatment (CFU) [1] | bacterial count after treatment (CFU) [2] | inhibition of infectivity of influenza A virus [3] | reduction of influenza A infection of MDCK cells [3]
O=C(O)CN(CCN(CC(=O)O)CC(=O)O)CC(=O)O [EDTA, ethylenediamine-tetraacetic acid] | 790,000 CFU | 320,000 CFU | – | –
4-(1,1,3,3-Tetramethylbutyl)phenvl-polyethylene glycol [TRITON X-100] | – | – | only partially inhibited | completely ineffective
